Data as given in patent US20160091485A1, “MARKERS FOR EZH2 INHIBITORS” (THE BROAD INSTITUTE, INC., priority 2013, published 2016).
pIC50: −log10 of the molar value.

Experiments:
[1] = system: cancer cell lines with EZH2 gain-of-function mutations (MCS Cluster A); assay: Cell proliferation, cell lines sensitive by EZH2 genotype and MCS (cluster A); assay type: cell-based; conditions: FIG. 5; cells predicted to be sensitive by EZH2 genotyping and by MCS
Procedure: (§1) B cell lymphoma cells were cultured using standard cell culture conditions. For example, lymphoma cells were cultured in RPMI-1640 (Invitrogen, cat #11875, Grand Island, N.Y.) supplemented with 15% FBS (Invitrogen, cat #10099-141, Grand Island, N.Y.) in humidified incubator at 37° C., 5% CO2. To assess the effect of EZH2 inhibitor on cell proliferation, exponentially growing cells were seeded at a density of 1×10^5 cells/ml in 12-well plate (Corning, cat #CLS3513 Tewksbury, Mass.). Compounds were added after cell seeding at the indicated final concentration, and viable cell number was determined every 3-4 days continuously during the course of experiment using Vi-CELL (Beckman Coulter, Brea, Calif.). On days of cell counting, fresh growth media and compound were replenished and cells split back to a density of 1×10^5 cells/ml. Total cell number and population doubling was then calculated.

[2] = system: cells carrying EZH2 gain of function mutation, not in cluster A (low levels of H3K27me3); assay: Cell proliferation, EZH2 gain of function cells not in cluster A; assay type: cell-based; conditions: FIG. 6, cells predicted sensitive by genotyping, insensitive by MCS
Procedure: as §1

wild type EZH2 = wild type EZH2 (Homo sapiens, UniProt Q15910); conditions: SAM competitive; cited from earlier work
Chain of wild type EZH2 (Q15910 whole entry): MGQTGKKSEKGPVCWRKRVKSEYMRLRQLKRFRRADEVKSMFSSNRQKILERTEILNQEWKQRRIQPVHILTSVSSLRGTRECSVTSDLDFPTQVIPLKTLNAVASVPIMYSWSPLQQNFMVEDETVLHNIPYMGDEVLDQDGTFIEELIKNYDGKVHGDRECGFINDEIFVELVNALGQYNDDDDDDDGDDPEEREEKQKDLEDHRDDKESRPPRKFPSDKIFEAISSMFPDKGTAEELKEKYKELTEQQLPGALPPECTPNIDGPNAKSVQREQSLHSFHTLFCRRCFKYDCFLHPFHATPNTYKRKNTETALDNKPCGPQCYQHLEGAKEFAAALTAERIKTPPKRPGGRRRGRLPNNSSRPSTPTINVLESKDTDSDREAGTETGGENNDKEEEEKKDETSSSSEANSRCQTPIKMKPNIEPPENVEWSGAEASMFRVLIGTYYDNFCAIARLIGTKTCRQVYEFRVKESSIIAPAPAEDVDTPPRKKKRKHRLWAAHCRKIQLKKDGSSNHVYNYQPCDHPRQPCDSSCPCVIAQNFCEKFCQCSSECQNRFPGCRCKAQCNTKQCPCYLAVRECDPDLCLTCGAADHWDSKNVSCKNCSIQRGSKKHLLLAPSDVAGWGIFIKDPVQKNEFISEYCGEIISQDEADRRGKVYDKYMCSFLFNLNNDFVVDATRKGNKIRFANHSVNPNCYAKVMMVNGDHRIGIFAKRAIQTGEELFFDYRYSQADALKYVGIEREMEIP
Chain of wild type EZH2 (O75530 whole entry partner): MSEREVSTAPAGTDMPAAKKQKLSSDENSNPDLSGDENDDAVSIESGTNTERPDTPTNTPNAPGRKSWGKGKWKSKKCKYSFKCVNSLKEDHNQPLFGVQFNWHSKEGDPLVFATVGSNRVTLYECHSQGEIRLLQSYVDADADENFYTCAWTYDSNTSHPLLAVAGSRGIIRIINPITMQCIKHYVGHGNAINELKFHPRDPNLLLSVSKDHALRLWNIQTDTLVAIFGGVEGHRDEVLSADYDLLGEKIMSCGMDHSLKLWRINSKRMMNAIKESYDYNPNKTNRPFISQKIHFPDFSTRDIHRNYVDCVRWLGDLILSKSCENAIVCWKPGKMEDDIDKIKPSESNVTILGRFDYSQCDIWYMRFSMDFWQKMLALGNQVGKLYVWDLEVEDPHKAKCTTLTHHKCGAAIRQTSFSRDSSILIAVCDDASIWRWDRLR
Chain of wild type EZH2 (Q15022 whole entry partner): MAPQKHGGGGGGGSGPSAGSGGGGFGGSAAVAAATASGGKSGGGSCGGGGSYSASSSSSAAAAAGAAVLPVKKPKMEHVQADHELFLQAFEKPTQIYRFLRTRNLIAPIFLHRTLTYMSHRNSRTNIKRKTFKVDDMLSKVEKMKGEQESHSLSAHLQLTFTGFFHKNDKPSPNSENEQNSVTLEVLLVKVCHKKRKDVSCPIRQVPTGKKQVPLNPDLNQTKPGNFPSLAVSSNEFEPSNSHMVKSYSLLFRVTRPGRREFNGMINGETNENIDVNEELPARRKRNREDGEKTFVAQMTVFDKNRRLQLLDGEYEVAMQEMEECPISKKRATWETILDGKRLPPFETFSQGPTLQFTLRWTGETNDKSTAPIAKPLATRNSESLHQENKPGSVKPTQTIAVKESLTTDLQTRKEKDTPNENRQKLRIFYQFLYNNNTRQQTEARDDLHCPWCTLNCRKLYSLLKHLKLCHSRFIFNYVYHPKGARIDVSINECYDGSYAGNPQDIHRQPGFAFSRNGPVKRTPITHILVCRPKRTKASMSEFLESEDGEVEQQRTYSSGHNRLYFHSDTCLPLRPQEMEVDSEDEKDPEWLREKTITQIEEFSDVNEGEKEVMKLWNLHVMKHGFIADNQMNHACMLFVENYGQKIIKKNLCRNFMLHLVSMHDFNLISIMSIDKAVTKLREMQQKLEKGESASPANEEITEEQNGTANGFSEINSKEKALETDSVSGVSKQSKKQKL

Y641F EZH2 = Y641F EZH2 (Homo sapiens, UniProt Q15910, Y641F); conditions: SAM competitive; cited from earlier work
Chain of Y641F EZH2 (Q15910 whole entry Y641F): as the sequence (Q15910 whole entry) above, with Y641F counted along it
Chain of Y641F EZH2 (O75530 whole entry partner): as the sequence (O75530 whole entry partner) above
Chain of Y641F EZH2 (Q15022 whole entry partner): as the sequence (Q15022 whole entry partner) above

In the case of `CCC(CC)n1ccc2c(C(=O)NCc3c(C)cc(C)[nH]c3=O)cc(C#N)cc21` [EI1, 6-cyano-N-((4,6-dimethyl-2-oxo-1,2-dihydropyridin-3-yl)methyl)-1-(pentan-3-yl)-1H-indole-4-carboxamide], the “sensitivity of cells to EZH2 inhibitor (cell proliferation)” value [1] is listed as “sensitive”, the “sensitivity of cells to EZH2 inhibitor (cell proliferation)” value [2] is listed as “insensitive” and the pIC50 (wild type EZH2) is listed as 8.03. The pIC50 (Y641F EZH2) was 7.88.
